Measured values taken from article PMC8622415, “Inhibitory Effect of Chlorogenic Acid Analogues Comprising Pyridine and Pyrimidine on α-MSH-Stimulated Melanogenesis and Stability of Acyl Analogues in Methanol” (Pharmaceuticals, 2021).
“And” between values parts separate entries of the source, which are not always exact repeats. Equal values may be shown once. Read-outs that look alike come from different tables or passages of the source. Each block holds one molecule with its values, some of them ahead of it.

Columns and labels:
B16 melanoma cells = assay: Inhibition of α-MSH-stimulated melanin formation (melanin measurement); format: cell-based, Mouse; details: α-MSH 10.0 nM, melanin released into medium, absorbance 405 nm, read-out: IC50, inhibition of α-MSH-induced melanogenesis
Protocol: Mouse melanoma B16 cells were cultured in a 96-well culture plate (2.5 × 10^3 cells/well). Culture media were washed from each culture plates after 24 h and treated with freshly prepared 10% FBS-DMEM medium, various concentrations (such as 0.5, 1.0, 3.0, 10.0, 30.0, and 100.0 µM) of compound samples, and stimulants (α-MSH, 10.0 nM). Then, it was incubated at 37 °C for 72 h, and the amount of melanin released into the medium was determined by measuring the absorbance at wavelength of 405 nm using spectrophotometer (Molecular Device, San Jose, CA, USA). The absorbance of stimulated cells using α-MSH was used as a control, and the inhibition level was calculated by subtracting the absorbance values of cells that were not stimulated. The absorbance values were compared with standard curves obtained with synthetic melanin. The synthetic melanin (Sigma-Aldrich, St. Louis, MO, USA) was dissolved in 0.85 M KOH-10% DMSO solution; then, it was serially diluted with 10% FBS-DMEM medium and then aliquoted into a 96-well culture plate. Then, the absorbance of melanin was measured by a spectrophotometer at 405 nm, and a standard curve was prepared. Using this value, the amount of melanin released out of the cell was directly calculated. Results obtained by three or more sets of experiments were expressed as mean ± standard error.

[1] = Stability of CGA acyl analogues in methanol solution (HPLC); format: physicochemical; details: 25 °C
Protocol: The stability of the synthesized acyl analogues was measured in methanol, since the acetyl analogue of CGA was highly unstable in methanol solution. First, 10 mg of the sample was dissolved in 2 mL of methanol and stored at 25 °C. Then, purity was analyzed using HPLC (Shimadzu LC solution, Kyoto, Japan) for 28 days. The samples in methanol solution were diluted 10 times in the HPLC mobile phase ((A) 0.5% formic acid in H2O (B) 0.5% formic acid in acetonitrile (ACN), A/B = 20/80) and injected in HPLC column (inertsil ODS-3V C18 column (250 × 4.00 mm i.d; 5 μm)). Finally, the amount of acyl compound remaining in the solution was measured by calculating the area under the curve of the HPLC chromatogram, and the results were expressed in percentage units.

SMILES: OC[C@H]1O[C@@H](Oc2ccc(O)cc2)[C@H](O)[C@@H](O)[C@@H]1O [Arbutin, reference compound]
IC50 (B16 melanoma cells; Mus musculus, B16, 72 h): 380 ± 9.5 µM

SMILES: COc1ccc(-c2ccnc(NCc3ccccc3)n2)cc1OC [Compound 10a, N-Benzyl-4-(3,4-dimethoxyphenyl)pyrimidin-2-amine]
IC50 (B16 melanoma cells; Mus musculus, B16, 72 h): > 100 µM

SMILES: COc1ccc(-c2ccnc(NCc3ccc(Cl)cc3)n2)cc1OC [Compound 10b, N-(4-Chlorobenzyl)-4-(3,4-dimethoxyphenyl)pyrimidin-2-amine]
IC50 (B16 melanoma cells; Mus musculus, B16, 72 h): 54 ± 6 µM

SMILES: COc1ccc(-c2ccnc(NCc3ccccc3Cl)n2)cc1OC [Compound 10d, N-(2-Chlorobenzyl)-4-(3,4-dimethoxyphenyl)pyrimidin-2-amine]
IC50 (B16 melanoma cells; Mus musculus, B16, 72 h): 40 ± 8 µM

SMILES: COc1ccc(-c2ccnc(NCc3ccc(C(F)(F)F)cc3)n2)cc1OC [Compound 10e, 4-(3,4-Dimethoxyphenyl)-N-(4-(trifluoromethyl)benzyl)pyrimidin-2-amine]
IC50 (B16 melanoma cells; Mus musculus, B16, 72 h): > 100 µM

SMILES: CCCC(=O)Oc1ccc(/C=C/C(=O)OC2CCCCC2)cc1OC(=O)CCC [Compound 13a, (E)-4-(3-(Cyclohexyloxy)-3-oxoprop-1-en-1-yl)-1,2-phenylene dibutyrate]
Amount remaining in methanol (HPLC area) ([1]; day 0): 99.3294%
Amount remaining in methanol (HPLC area) ([1]; day 1): 91.3520%
Amount remaining in methanol (HPLC area) ([1]; day 2): 85.3800%
Amount remaining in methanol (HPLC area) ([1]; day 3): 80.3685%
Amount remaining in methanol (HPLC area) ([1]; day 4): 75.4921%
Amount remaining in methanol (HPLC area) ([1]; day 5): 72.147%
Amount remaining in methanol (HPLC area) ([1]; day 7): 64.7751%
Amount remaining in methanol (HPLC area) ([1]; day 9): 59.4842%
Amount remaining in methanol (HPLC area) ([1]; day 11): 55.1819%
Amount remaining in methanol (HPLC area) ([1]; day 21): 43.3505%
Amount remaining in methanol (HPLC area) ([1]; day 28): 39% and 39.0229%
IC50 (B16 melanoma cells; Mus musculus, B16, 72 h): 1.1 ± 0.1 µM
IC50 (B16 melanoma cells; 72 h): 1 ± 0.1 µM

SMILES: CCCCCC(=O)Oc1ccc(/C=C/C(=O)OC2CCCCC2)cc1OC(=O)CCCCC [Compound 13b, (E)-4-(3-(Cyclohexyloxy)-3-oxoprop-1-en-1-yl)-1,2-phenylene dihexanoate]
Amount remaining in methanol (HPLC area) ([1]; day 0): 99.8006%
Amount remaining in methanol (HPLC area) ([1]; day 1): 93.7356%
Amount remaining in methanol (HPLC area) ([1]; day 2): 89.9637%
Amount remaining in methanol (HPLC area) ([1]; day 3): 86.8066%
Amount remaining in methanol (HPLC area) ([1]; day 4): 83.9188%
Amount remaining in methanol (HPLC area) ([1]; day 5): 82.1086%
Amount remaining in methanol (HPLC area) ([1]; day 7): 77.5962%
Amount remaining in methanol (HPLC area) ([1]; day 9): 74.0389%
Amount remaining in methanol (HPLC area) ([1]; day 11): 70.6843%
Amount remaining in methanol (HPLC area) ([1]; day 21): 58.4127%
Amount remaining in methanol (HPLC area) ([1]; day 28): 52% and 52.5500%
IC50 (B16 melanoma cells; Mus musculus, B16, 72 h): 1.3 ± 0.4 µM

SMILES: CC(C)(C)C(=O)Oc1ccc(/C=C/C(=O)OC2CCCCC2)cc1OC(=O)C(C)(C)C [Compound 13c, (E)-4-(3-(Cyclohexyloxy)-3-oxoprop-1-en-1-yl)-1,2-phenylene bis(2,2-dimethylpropanoate)]
Amount remaining in methanol (HPLC area) ([1]; day 0): 99.5492%
Amount remaining in methanol (HPLC area) ([1]; day 1): 99.3034%
Amount remaining in methanol (HPLC area) ([1]; day 2): 99.1518%
Amount remaining in methanol (HPLC area) ([1]; day 3): 99.0038%
Amount remaining in methanol (HPLC area) ([1]; day 4): 98.8061%
Amount remaining in methanol (HPLC area) ([1]; day 5): 98.5395%
Amount remaining in methanol (HPLC area) ([1]; day 7): 97.9332%
Amount remaining in methanol (HPLC area) ([1]; day 9): 97.4173%
Amount remaining in methanol (HPLC area) ([1]; day 11): 96.8033%
Amount remaining in methanol (HPLC area) ([1]; day 21): 95.0243%
Amount remaining in methanol (HPLC area) ([1]; day 28): 94% and 94.0833%
IC50 (B16 melanoma cells; Mus musculus, B16, 72 h): 1.9 ± 0.1 µM

SMILES: O=C(/C=C/c1ccc(OC(=O)C2CCCCC2)c(OC(=O)C2CCCCC2)c1)OC1CCCCC1 [Compound 13d, (E)-4-(3-(Cyclohexyloxy)-3-oxoprop-1-en-1-yl)-1,2-phenylene dicyclohexanecarboxylate]
Amount remaining in methanol (HPLC area) ([1]; day 0): 98.9750%
Amount remaining in methanol (HPLC area) ([1]; day 1): 96.9973%
Amount remaining in methanol (HPLC area) ([1]; day 2): 95.8267%
Amount remaining in methanol (HPLC area) ([1]; day 3): 94.6557%
Amount remaining in methanol (HPLC area) ([1]; day 4): 93.5713%
Amount remaining in methanol (HPLC area) ([1]; day 5): 93.0573%
Amount remaining in methanol (HPLC area) ([1]; day 7): 91.6229%
Amount remaining in methanol (HPLC area) ([1]; day 9): 90.6724%
Amount remaining in methanol (HPLC area) ([1]; day 11): 89.8768%
Amount remaining in methanol (HPLC area) ([1]; day 21): 87.5571%
IC50 (B16 melanoma cells; Mus musculus, B16, 72 h): 2.3 ± 0.2 µM

SMILES: CC(C)COc1ccc(/C=C/C(=O)OC2CCCCC2)cc1OCC(C)C [Compound 15, (E)-Cyclohexyl 3-(3,4-diisobutoxyphenyl)acrylate]
IC50 (B16 melanoma cells; Mus musculus, B16, 72 h): > 100 µM

SMILES: COc1ccc(/C=C/C(=O)OC2CCCCC2)cc1OC [Compound 17, (E)-Cyclohexyl 3-(3,4-dimethoxyphenyl)acrylate]
IC50 (B16 melanoma cells; Mus musculus, B16, 72 h): > 100 µM

SMILES: CC(=O)Oc1ccc(/C=C/C(=O)OC2CCCCC2)cc1OC(C)=O [Compound 18]
Amount remaining in methanol (HPLC area) ([1]; day 0): 99.5029%
Amount remaining in methanol (HPLC area) ([1]; day 1): 71.1918%
Amount remaining in methanol (HPLC area) ([1]; day 2): 55.5162%
Amount remaining in methanol (HPLC area) ([1]; day 3): 43.5699%
Amount remaining in methanol (HPLC area) ([1]; day 4): 33.7154%
Amount remaining in methanol (HPLC area) ([1]; day 5): 27.3752%
Amount remaining in methanol (HPLC area) ([1]; day 7): 16.5047%
Amount remaining in methanol (HPLC area) ([1]; day 9): 10.5572%
Amount remaining in methanol (HPLC area) ([1]; day 11): 6.9200%
Amount remaining in methanol (HPLC area) ([1]; day 21): 1.4408%
Amount decomposed in methanol solution ([1]; within 10 days, HPLC): more than 90%

SMILES: O=c1cc(CO)occ1O [Kojic acid, reference compound]
IC50 (B16 melanoma cells; Mus musculus, B16, 72 h): 54 ± 1.5 µM

The remaining lines, values ahead:

IC50 (B16 melanoma cells; Mus musculus, B16, 72 h): 17 ± 4 µM
SMILES: COc1ccc(-c2ccnc(NCc3ccccc3)c2)cc1OC [Compound 6a, N-Benzyl-4-(3,4-dimethoxyphenyl)pyridin-2-amine]

IC50 (B16 melanoma cells; Mus musculus, B16, 72 h): 4.5 ± 0.7 µM
SMILES: COc1ccc(-c2ccnc(NCc3ccc(Cl)cc3)c2)cc1OC [Compound 6b, N-(4-Chlorobenzyl)-4-(3,4-dimethoxyphenyl)pyridin-2-amine]

IC50 (B16 melanoma cells; Mus musculus, B16, 72 h): 5 ± 1.4 µM
SMILES: COc1ccc(-c2ccnc(NCc3cccc(Cl)c3)c2)cc1OC [Compound 6c, N-(3-Chlorobenzyl)-4-(3,4-dimethoxyphenyl)pyridin-2-amine]

IC50 (B16 melanoma cells; Mus musculus, B16, 72 h): 8.5 ± 0.7 µM
IC50 (B16 melanoma cells; 72 h): 8 ± 1 µM
SMILES: COc1ccc(-c2ccnc(NCc3ccccc3Cl)c2)cc1OC [Compound 6d, N-(2-Chlorobenzyl)-4-(3,4-dimethoxyphenyl)pyridin-2-amine]

IC50 (B16 melanoma cells; Mus musculus, B16, 72 h): 8.5 ± 0.7 µM
SMILES: COc1ccc(-c2ccnc(NCc3ccc(C(F)(F)F)cc3)c2)cc1OC [Compound 6e, 4-(3,4-Dimethoxyphenyl)-N-(4-(trifluoromethyl)benzyl)pyridin-2-amine]

IC50 (B16 melanoma cells; Mus musculus, B16, 72 h): 2.5 ± 0.7 µM
SMILES: COc1ccc(-c2ccnc(NCc3cccc(C(F)(F)F)c3)c2)cc1OC [Compound 6f, 4-(3,4-Dimethoxyphenyl)-N-(3-(trifluoromethyl)benzyl)pyridin-2-amine]

IC50 (B16 melanoma cells; Mus musculus, B16, 72 h): 7.5 ± 0.7 µM
SMILES: COc1ccc(-c2ccnc(NCc3ccccc3C(F)(F)F)c2)cc1OC [Compound 6g, 4-(3,4-Dimethoxyphenyl)-N-(2-(trifluoromethyl)benzyl)pyridin-2-amine]

IC50 (B16 melanoma cells; Mus musculus, B16, 72 h): 32 ± 2 µM
SMILES: COc1ccc(-c2ccnc(NCc3cccc(Cl)c3)n2)cc1OC [Compound 10c, N-(3-Chlorobenzyl)-4-(3,4-dimethoxyphenyl)pyrimidin-2-amine]

IC50 (B16 melanoma cells; Mus musculus, B16, 72 h): 20 ± 1 µM
SMILES: COc1ccc(-c2ccnc(NCc3cccc(C(F)(F)F)c3)n2)cc1OC [Compound 10f, 4-(3,4-Dimethoxyphenyl)-N-(3-(trifluoromethyl)benzyl)pyrimidin-2-amine]
